Measurements from patent publication US5298621A, “Oligopeptide derivatives of ipoxantine endowed with immunomodulating activity and pharmaceutical compositions containing same” (Sigma-Tau Industrie Farmaceutiche Riunite S.p.A., priority 1990, dated 1994).

Key:
[1] = test system: plaque-forming cells (PFC) in the spleen of SRBC-immunized mice; test: Primary antibody production (Jerne test) in the spleen of SRBC immunized mice; type: in vivo
Experimental: Test 1 Assessment of the effect of ST 657 and ST 789 on the primary antibody production (Jerne test) in the spleen of SRBC (Sheep Red Blood Cells) immunized mice.
Male B6 D2 F1 mice (Charles River, Italy) aged 7-8 weeks (6 animals per group) were used. In this test, the animals were examined separately.
The compounds were administered i.p. at the doses of 2.5 and 25 mg/kg (single administration) the same day of immunization (Table 1) or, at the dose of 2.5 mg/kg/day (repeated administrations), at days -2, 0 and +2 (immunization at day 0) (Table 2).
The experimental procedure has been described by Jerne, N.K. et al, Transpl. Rev., 18, 130 (1974). In particular, the animals were immunized by i.p. administrations of a SRBC suspension (1×10^7 cells/mouse in 0.2 mL of sterile saline).
5 days following treatment, the spleens were aseptically excised from the sacrificed animals.
The concentration of the splenocytes obtained from the spleen was adjusted to 1×10^7 cells/mL. Aliquots of 0.1 mL of suspension were mixed with warm agar-Hank's (2 mL) and 10% SRBC in PBS buffer (0.2 mL), seeded in Petri dishes and incubated at 37° C. for 60 minutes (samples tested in triplicates). Following addition of complement (2 mL of guinea pig serum diluted 1:10 in Tris buffer), Petri dishes were further incubated at 37° C. for 30 minutes. In the presence of complement, the antibody-secreting cells of splenocytes extracted from the spleens of SRBC-immunized mice cause a hemolytic reaction. This reaction brings about the formation of lytic plaques in the samples.
The results obtained are expressed as follows: […]
(a) number of plaque-forming cells (PFC) out of 10^6 cells;
(b) number of plaque-forming cells in the whole spleen.
The data obtained are processed with Dunnett's test (Biostatistics in Pharmacology, vol. II, Pergamon Press) to assess the statistical significance of differences recorded between groups of treated and control animals.

[2] = test system: K. pneumoniae; test: Protective effect in immunodepressed mice experimentally infected with K. pneumoniae; type: in vivo; settings: for % Mortality: cyclophosphamide immunodepressed
Text: Test 2 Assessment of the protective effect induced by ST 657, ST 733, ST 754 and ST 789 on immunodepressed mice experimentally infected.
Male CD1 mice (Charles River, Italy) of different ages were used: mice aged 6 and 12 weeks infected with Klebsiella and mice aged 7 weeks infected with Salmonella (10 mice per group).
Systemic infection in mice was induced via i.p. inoculum of either a pathogenic strain of Klebsiella (K. pneumoniae) or a pathogenic strain of Salmonella (S. typhimurium), which were able to provoke death of the animals within 5 and 20 days, respectively, following the challenge.
Infective doses prepared from overnight broth cultures corresponding to 1.5×10^5 and 3.5×10^5 live cells of K. pneumoniae, and 1×10^3 live cells of S. typhimurium were suspended in 0.2 mL of 5% gastric mucine and then injected.
The immunosuppressor (cyclophosphamide) was administered i.p. in 0.2 mL of sterile saline, 100 mg/kg, 5 days before the infective challenge.
The compounds were administered i.p., 0.25 and 25 mg/kg/day, from day -5 to day -1 (challenge at day 0).
The results obtained are expressed as % mortality and statistically processed with the Fisher's exact test (Biostatistics in Pharmacology, vol. II, Pergamon Press).

[3] = test system: rat granulocytes; test: "In vitro" chemotactic activity of rat granulocytes (modified Boyden chamber); type: cell-based; settings: for "in vitro" chemotaxis (μ ± S.E.): 10 mcg/mL, granulocytes of untreated rats; for chemotactic activity of rat granulocytes versus the control (in words): in vitro and in vitro-ex vivo
Experimental: (§1) Test 3 Assessment of the "in vitro" and "in vitro-ex vivo" effect of ST 657 and ST 789 on the chemotactic activity of rat granulocytes.
(§2) Male Fisher-344 rats aged about 3 months were used (6-8 animals for each experimental group).
(§3) The compounds were tested "in vitro", 10 mcg/mL, and "in vitro-ex vivo" following administration of 25 mg/kg/day from day -5 to day -1 (taking of blood sample at day 0).
(§4) The experimental procedure is described by Cates, L. K. et al (1987), Modified Boyden chamber method of measuring polymorphonuclear leukocyte chemotaxis, Leukocyte Chemotaxis, Raven Press, N.Y. 67.
(§5) Blood samples were collected from animals sacrificed by decapitation. Following passage through heparinized gauze, blood was diluted (1:1) with dextran (1.5% in saline) and allowed to sediment for 90 minutes.
The concentration of the granulocytes, collected from blood via known techniques, was adjusted to 2×10^6 cells/mL in Hank's medium. They were then seeded on 3 μMillipore filters which were placed in migration chambers.
These chambers were prepared using Hank's medium to evaluate the spontaneous migration, and casein (2 mL of solution, at the concentration 5 mg/mL) to evaluate the induced migration.
In performing the "in vitro" test, granulocytes of untreated animals were used, to which the compounds had been added before seeding thereof on the Millipore filters preparation of migration chambers.
Following incubation of the samples at 37° C. and 5% CO2 for 60 minutes, the filters were stained and mounted on microscope slides.
Microscopic examination of samples versus control allows the distance (in μm) run by the two most forward granulocytes in the framed field to be determined. Granulocyte migration is determined by calculating the mean value of 10 readings performed as a whole on two filters per sample.
The results obtained were statistically processed with Student's "t" test (Biostatistics in Pharmacology, loc, cit.).

[4] = test system: rat granulocytes; test: "In vitro-ex vivo" chemotactic activity of rat granulocytes; settings: 25 mg/kg/day i.p. from day -5 to day -1, blood sample at day 0
Experimental: as §1, §2, §3, §4, §5
The concentration of the granulocytes, collected from blood via known techniques, was adjusted to 2×10^6 cells/mL in Hank's medium. They were then seeded on 3 μMillipore filters which were placed in migration chambers. […]
Microscopic examination of samples versus control allows the distance (in μm) run by the two most forward granulocytes in the framed field to be determined. Granulocyte migration is determined by calculating the mean value of 10 readings performed as a whole on two filters per sample. […]

[5] = test system: Sarcoma S 180 cells; test: Protective effect in S 180 Sarcoma-bearing mice; type: in vivo; settings: for Dead/total / MST (mean survival time calculated by the median and the first interquartile range): 0.25 mg/kg i.p. from day +1 to day +10; for Weight control (x ± S.E.): 0.25 mg/kg/day i.p. day +1 to +10, in g (unit assumed); for number of surviving animals at the indicated day / animals survived (footnote, end of observation): group of 9, 0.25 mg/kg/day; for animals survived (footnote, end of observation): after day +26
Experimental: Test 4 Assessement of the protective effect of ST 657 and ST 789 in tumor-bearing mice.
Male DBA/2 mice and male CD1 mice (Charles River), both aged 6 weeks, were used.
CD1 mice were inoculated i.p. with 1×10^3 Sarcoma S 180 cells (ATCC, loc. cit.) in 0.1 mL of Hank's medium.
The compounds were adminstered i.p. in sterile saline (0.25 mg/kg/day) from day +1 to day +10 (tumor transplantation at day 0).
Also the body weight of the animals was monitored, from day 0 to day +16 for the L 1210 leukemia-bearing mice, and from day 0 to day +21 for the S 180 sarcoma-bearing mice.
Monitoring of body weight was conducted in order to evaluate the evolution of the neoplastic process. Compounds activity was assessed as Mean Survival Time (MST).

[6] = 25 mg/kg i.p., single administration on the day of immunization
[7] = K. pneumoniae 1.5 × 10^5 cells, animals aged 6 weeks, 0.25 mg/kg/day i.p. day -5 to -1
[8] = K. pneumoniae 1.5 × 10^5 cells, animals aged 6 weeks, 25 mg/kg/day i.p. day -5 to -1
[9] = K. pneumoniae 3.5 × 10^5 cells, animals aged 12 weeks, 0.25 mg/kg/day i.p. day -5 to -1
[10] = K. pneumoniae 3.5 × 10^5 cells, animals aged 12 weeks, 25 mg/kg/day i.p. day -5 to -1
[11] = 2,5 mg/kg i.p., single administration on the day of immunization
[12] = 2,5 mg/kg/day i.p. at days -2, 0, +2 (immunization at day 0)

Molecule	PFC/10^6 cells (x and ranges of variation) [1, 6]	PFC/spleen (x and ranges of variation) [1, 6]	% Mortality [2, 7]	% Mortality [2, 8]	% Mortality [2, 9]	% Mortality [2, 10]	"in vitro" chemotaxis (μ ± S.E.) [3]	chemotactic activity of rat granulocytes versus the control (in words) [3]	"in vitro-ex vivo" chemotaxis (μ ± S.E.) [4]	Dead/total [5]	MST (mean survival time calculated by the median and the first interquartile range) [5]	Weight control (x ± S.E.) ([5]; Day 0)	Weight control (x ± S.E.) ([5]; Day 2)	Weight control (x ± S.E.) ([5]; Day 4)	Weight control (x ± S.E.) ([5]; Day 7)	Weight control (x ± S.E.) ([5]; Day 9)	Weight control (x ± S.E.) ([5]; Day 11)	Weight control (x ± S.E.) ([5]; Day 14)	Weight control (x ± S.E.) ([5]; Day 16)	Weight control (x ± S.E.) ([5]; Day 21)	other results
N=C(N)NCCC[C@H](NC(=O)OCCCCCn1cnc2c(=O)[nH]cnc21)C(=O)O [ST 789, N-5-(ipoxantin-9-yl) pentyloxycarbonylarginine, reference compound]	339 (318-360) PFC/10^6 cells	58137 (54505-62010) PFC/spleen	50%	40%	50%	60%	38.8 ± 4.47 μ	totally inactive	79.8 ± 1.53 μ	8/9	22.0 (20.5-≥25.5)	21.8 ± 0.5	22.4 ± 0.5	24.3 ± 0.6	25.8 ± 0.7	26.9 ± 0.8	29.2 ± 1.2	33.1 ± 2.0	34.0 ± 2.0	32.8 ± 2.2	number of surviving animals at the indicated day ([5]; Day 21): 5; animals survived (footnote, end of observation) [5]: One
N-5-(ipoxantin-9-yl) pentyloxycarbonyl glycyl L-aspartate disodium salt [ST 657]	422 (403-443) PFC/10^6 cells	61276 (54294-63323) PFC/spleen	50%	20%	33%	60%	54.8 ± 3.05 μ	effective in enhancing the chemotactic activity	89.3 ± 1.95 μ	5/9	26.0 (20.5-≥47.0)	22.2 ± 0.3	22.0 ± 0.6	23.9 ± 0.4	26.1 ± 0.4	27.3 ± 0.5	28.6 ± 0.6	31.2 ± 1.0	31.4 ± 1.1	32.9 ± 1.0	PFC/10^6 cells (x and ranges of variation) [1, 11]: 393 (368-420) PFC/10^6 cells; PFC/spleen (x and ranges of variation) [1, 11]: 62356 (59939-64871) PFC/spleen; PFC/10^6 cells (x and ranges of variation) [1, 12]: 416 (372-465) PFC/10^6 cells; PFC/spleen (x and ranges of variation) [1, 12]: 67195 (59781-75529) PFC/spleen; increase of PFC number with respect to control (in words) ([1]; comparison with ST 789): more active than ST 789; protective effect in immunodepressed infected mice (in words) ([2]; comparison with ST 789, K. pneumoniae and S. typhimurium tables): protective effect more potent than ST 789; number of surviving animals at the indicated day ([5]; Day 21): 6; animals survived (footnote, end of observation) [5]: 4; MST / protection in tumor-bearing mice (in words) ([5]; comparison with ST 789, S 180 and L 1210 tables): higher MST and/or a better protection than ST 789
